Target: nuclear receptor 4A1 (NR4A1) (Homo sapiens, UniProt P22736)
Test: tryptophan fluorescence quenching with NR4A1 LBD ([…])
Format: binding

Chain of nuclear receptor 4A1 (NR4A1) (P22736 351-598 limits assumed): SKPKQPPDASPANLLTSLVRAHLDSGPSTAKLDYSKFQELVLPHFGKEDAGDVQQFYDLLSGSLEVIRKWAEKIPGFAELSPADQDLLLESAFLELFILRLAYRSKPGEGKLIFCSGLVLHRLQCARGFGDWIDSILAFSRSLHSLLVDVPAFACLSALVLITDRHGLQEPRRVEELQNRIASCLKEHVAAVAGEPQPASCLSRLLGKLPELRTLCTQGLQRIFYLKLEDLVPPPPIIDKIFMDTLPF

- Kd: 10.6 µM
SMILES: COc1ccc2cc1Oc1ccc(cc1)C[C@H]1c3cc(c(OC)cc3CCN1C)Oc1c(OC)c(OC)cc3c1[C@H](C2)N(C)CC3 [TTD, tetrandrine]

— article PMC9104798, “Plant Alkaloid Tetrandrine Is a Nuclear Receptor 4A1 Antagonist and Inhibits Panc-1 Cell Growth In Vitro and In Vivo” (International Journal of Molecular Sciences, 2022)
